One may read the melting point as the temperature, or range, at which the solid turns liquid.

Each structure is given as a SMILES string.

5 compounds from patent publication US8313669B2, “Liquid-crystal display” (Merck Patent Gesellschaft mit Beschränkter Haftung, priority 2007, dated 2012) can be followed below.

Test in one data set: not given
Conditions: not given
The compound `C=C(C)C(=O)Oc1cccc(-c2cccc(OC(=O)C(=C)C)c2)c1` [(1), 3′-(2-Methylacryloyloxy)biphenyl-3-yl 2-methylacrylate] yielded a melting point of 70 °C.
In the case of `C=CC(=O)Oc1cccc(-c2cccc(OC(=O)C=C)c2)c1` [(2), 3′-Acryloyloxybiphenyl-3-yl acrylate], the melting point is 48 °C.
For `C=C(C)C(=O)OCCCOc1cccc(-c2cccc(OC(=O)C(=C)C)c2)c1` [(3), 3′-[3-(2-Methylacryloyloxy)propoxy]biphenyl-3-yl 2-methylacrylate], the melting point worked out at 49 °C.
`C=C(C)C(=O)OCCCCc1cc(-c2ccc(OC(=O)C(=C)C)cc2)ccc1OC(=O)C(=C)C` [(9), 4′-(2-Methylacryloyloxy)-3-[4-(2-methylacryloyloxy)butyl]biphenyl-4-yl 2-methylacrylate] showed a melting point of 76 °C.

A short description of the next data set: Solubility in nematic LC mixture LCT-06-441 (crystallisation on cooling). It counts as physicochemical. The settings on record: 5% by weight in LCT-06-441, stirred at 50° C. for ½ hour, then cooled to room temperature without stirring. The protocol:
The solubility of compound (1) is compared with the solubility of the structurally analogous compound (A) known from the prior art (for example EP 1 498 468 A1), in which the polymerisable groups are linked in the para-position to the mesogenic group:
To this end, each compound is dissolved in the commercially available nematic LC mixture LCT-06-441 (Merck KGaA, Darmstadt) in a concentration of 5% by weight with stirring at 50° C. (½ hour) and then cooled to room temperature without stirring.
For `C=C(C)C(=O)Oc1cccc(-c2cccc(OC(=O)C(=C)C)c2)c1` [(1), 3′-(2-Methylacryloyloxy)biphenyl-3-yl 2-methylacrylate], the “Solubility (crystallisation behaviour)” value was “Crystallises out overnight at RT”.
Still for that read-out and setting: to `C=C(C)C(=O)Oc1ccc(-c2ccc(OC(=O)C(=C)C)cc2)cc1` [(A), reference compound] belongs “Immediately crystallises out on cooling to RT”.
